Results published in ChEMBL document CHEMBL3414489, “3,4-Diaza-bicyclo[4.1.0]hept-4-en-2-one phenoxypropylamine analogs of irdabisant (CEP-26401) as potent histamine-3 receptor inverse agonists with robust wake-promoting activity” (Eur J Med Chem, 2015).
pEC50, pIC50, pKi: −log10 of the molar value.

Legend:
[1] = target: T1, Histamine H3 receptor (Homo sapiens, UniProt Q9Y5N1); test: Binding affinity to human histamine H3 receptor
[2] = target: Histamine H3 receptor (Rattus norvegicus, UniProt Q9QYN8); test: Binding affinity to rat histamine H3 receptor
[3] = tested on: Rattus norvegicus; test: Wake promoting activity in rat EEG/EMG model assessed as cumulative wake time at 3 mg/kg, ip after 22 hrs relative to vehicle-treated control; assay type: functional; conditions: route intraperitoneal
[4] = organism: Rattus norvegicus; conditions: 30 mg/kg
[5] = Half life in monkey liver microsomes; assay type: ADME, Macaca mulatta; conditions: rhesus monkey
[6] = Ratio of drug level in brain to plasma in rat at 10 mg/kg, ip after 2 hrs; assay type: ADME, organism-based; set-up: dose 10 mg/kg, route intraperitoneal; conditions: read-out: BPR
[7] = Cmax in rat at 10 mg/kg, po; assay type: ADME, organism-based; set-up: dose 10 mg/kg, route oral; conditions: in vivo
[8] = target: Histamine H1 receptor (Homo sapiens, UniProt P35367); test: Inhibition of human H1R
[9] = target: Sodium-dependent dopamine transporter (Homo sapiens, UniProt Q01959); test: Inhibition of DAT (unknown origin)
[10] = Aqueous solubility of the compound at pH 7.4; assay type: physicochemical
[11] = Permeability across human Caco2 cells; assay type: ADME, cell-based; conditions: Caco-2
[12] = Half life in rat liver microsomes; assay type: ADME
[13] = Plasma protein binding in rat; assay type: ADME, cell-free; conditions: read-out: PPB (converted)
[14] = Volume of distribution at steady state in rat at 1 mg/kg, iv; assay type: ADME, organism-based; set-up: dose 1 mg/kg, route intravenous; conditions: in vivo, read-out: Vdss
[15] = AUC (0 to t) in rat at 10 mg/kg, po; assay type: ADME, organism-based; set-up: dose 10 mg/kg, route oral; conditions: plasma
[16] = Plasma protein binding in dog; assay type: ADME, cell-free, Canis lupus familiaris; conditions: read-out: PPB (converted)
[17] = target: T2, Cytochrome P450 1A2 (Homo sapiens, UniProt P05177); test: Inhibition of CYP1A2 (unknown origin); assay type: ADME
T2 sequence (P05177 whole entry): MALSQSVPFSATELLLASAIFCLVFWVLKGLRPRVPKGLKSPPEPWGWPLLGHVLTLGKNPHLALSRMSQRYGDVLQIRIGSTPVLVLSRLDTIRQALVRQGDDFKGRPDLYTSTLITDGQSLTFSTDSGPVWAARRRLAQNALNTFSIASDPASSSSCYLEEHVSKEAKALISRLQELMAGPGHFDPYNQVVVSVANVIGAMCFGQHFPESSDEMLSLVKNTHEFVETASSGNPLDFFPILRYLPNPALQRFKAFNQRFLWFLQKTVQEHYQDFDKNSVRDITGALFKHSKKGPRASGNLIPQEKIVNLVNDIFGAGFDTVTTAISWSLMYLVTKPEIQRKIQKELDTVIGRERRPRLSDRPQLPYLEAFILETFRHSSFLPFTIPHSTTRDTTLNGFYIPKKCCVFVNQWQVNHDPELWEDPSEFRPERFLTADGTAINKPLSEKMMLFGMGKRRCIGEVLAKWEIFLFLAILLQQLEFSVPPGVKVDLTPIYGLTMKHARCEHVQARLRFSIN

[18] = tested on: Rattus norvegicus; test: Toxicity in po dosed rat; assay type: organism-based; conditions: in vivo
[19] = Half life in rat at 1 mg/kg, iv; assay type: ADME, organism-based; set-up: dose 1 mg/kg, route intravenous; conditions: in vivo
[20] = Clearance in rat at 1 mg/kg, iv; assay type: ADME, organism-based; set-up: dose 1 mg/kg, route intravenous; conditions: in vivo
[21] = tested on: Rattus norvegicus; test: Wake promoting activity in rat EEG/EMG model assessed as cumulative wake time at 30 mg/kg, ip after 22 hrs relative to vehicle-treated control; assay type: functional; conditions: route intraperitoneal
[22] = organism: Rattus norvegicus; test: Inhibition of RAMH-induced dipsogenia in rat; assay type: functional
[23] = tested on: Rattus norvegicus; test: Toxicity in rat at 3 to 30 mg/kg, ip; assay type: organism-based; set-up: dose 3-30 mg/kg, route intraperitoneal; conditions: in vivo
[24] = Oral bioavailability in rat at 10 mg/kg; assay type: ADME, organism-based; conditions: in vivo
[25] = Half life in mouse liver microsomes; assay type: ADME
[26] = target: T1, Histamine H3 receptor; test: Inverse agonist activity at human H3R expressed in CHO cells assessed as inhibition of RAMH-induced [35S]GTPgammaS binding relative to control; assay type: functional, cell-based
[27] = Plasma protein binding in human; assay type: ADME, cell-free; conditions: read-out: PPB (converted)
[28] = target: T3, Alpha-2C adrenergic receptor (Homo sapiens, UniProt P18825); test: Inhibition of alpha-2C adrenergic receptor (unknown origin)
T3 sequence (P18825 whole entry): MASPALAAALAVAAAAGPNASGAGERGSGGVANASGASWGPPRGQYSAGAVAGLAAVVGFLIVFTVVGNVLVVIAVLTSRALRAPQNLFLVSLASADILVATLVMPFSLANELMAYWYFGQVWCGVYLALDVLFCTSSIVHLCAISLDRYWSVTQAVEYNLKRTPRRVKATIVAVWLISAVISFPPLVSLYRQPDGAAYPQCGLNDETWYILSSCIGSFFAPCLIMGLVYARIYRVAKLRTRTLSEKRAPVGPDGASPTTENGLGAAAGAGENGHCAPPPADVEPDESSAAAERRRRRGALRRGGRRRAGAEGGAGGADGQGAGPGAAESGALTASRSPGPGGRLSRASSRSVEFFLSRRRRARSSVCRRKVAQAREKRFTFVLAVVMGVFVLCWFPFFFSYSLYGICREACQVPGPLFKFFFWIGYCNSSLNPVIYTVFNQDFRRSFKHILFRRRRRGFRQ

[29] = Aqueous solubility of the compound at pH 2; assay type: physicochemical
[30] = tested on: Rattus norvegicus; test: Wake promoting activity in rat EEG/EMG model assessed as cumulative wake time at 10 mg/kg, ip after 22 hrs relative to vehicle-treated control; assay type: functional; conditions: route intraperitoneal
[31] = tested on: Rattus norvegicus; test: Wake promoting activity in rat EEG/EMG model assessed as AUC of cumulative wake at 3 mg/kg, ip up to 4 hrs relative to vehicle-treated control; assay type: functional, organism-based; set-up: dose 3 mg/kg, time < 4 hr
[32] = target: Histamine H4 receptor (Homo sapiens, UniProt Q9H3N8); test: Inhibition of human H4R
[33] = organism: Rattus norvegicus; conditions: 10 mg/kg
[34] = Half life in human liver microsomes; assay type: ADME
[35] = target: Histamine H2 receptor (Homo sapiens, UniProt P25021); test: Inhibition of human H2R
[36] = tested on: Rattus norvegicus; test: Wake promoting activity in rat EEG/EMG model assessed as AUC of cumulative wake at 30 mg/kg, ip up to 5.5 hrs relative to vehicle-treated control; assay type: functional, organism-based; set-up: dose 30 mg/kg, time < 5.5 hr

T1 sequence (Q9Y5N1 whole entry): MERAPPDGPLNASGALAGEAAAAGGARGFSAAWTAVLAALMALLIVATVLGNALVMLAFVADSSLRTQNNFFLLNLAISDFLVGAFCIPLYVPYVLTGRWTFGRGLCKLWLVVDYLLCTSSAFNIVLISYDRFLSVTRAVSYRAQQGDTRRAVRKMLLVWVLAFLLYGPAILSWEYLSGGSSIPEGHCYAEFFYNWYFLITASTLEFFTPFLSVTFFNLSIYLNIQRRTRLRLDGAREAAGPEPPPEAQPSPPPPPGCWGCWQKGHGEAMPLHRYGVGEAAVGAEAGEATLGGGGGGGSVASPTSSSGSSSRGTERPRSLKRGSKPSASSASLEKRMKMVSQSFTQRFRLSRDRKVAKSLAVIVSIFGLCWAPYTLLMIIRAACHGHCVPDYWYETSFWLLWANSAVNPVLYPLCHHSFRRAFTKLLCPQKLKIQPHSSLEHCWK
Histamine H3 receptor (Rattus norvegicus, UniProt Q9QYN8), sequence (Q9QYN8 whole entry): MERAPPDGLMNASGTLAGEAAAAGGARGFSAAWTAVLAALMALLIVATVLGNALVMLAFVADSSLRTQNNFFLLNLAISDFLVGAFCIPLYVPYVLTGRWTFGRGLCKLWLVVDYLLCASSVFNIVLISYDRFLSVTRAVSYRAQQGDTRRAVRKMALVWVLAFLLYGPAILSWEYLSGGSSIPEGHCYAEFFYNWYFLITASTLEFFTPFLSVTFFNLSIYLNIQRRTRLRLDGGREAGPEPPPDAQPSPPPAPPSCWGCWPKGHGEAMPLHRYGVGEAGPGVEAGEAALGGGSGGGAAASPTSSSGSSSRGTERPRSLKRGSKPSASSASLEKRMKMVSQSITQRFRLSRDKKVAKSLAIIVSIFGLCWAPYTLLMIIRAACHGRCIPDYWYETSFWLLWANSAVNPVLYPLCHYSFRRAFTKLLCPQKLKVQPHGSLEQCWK
Histamine H4 receptor, sequence (Q9H3N8 whole entry): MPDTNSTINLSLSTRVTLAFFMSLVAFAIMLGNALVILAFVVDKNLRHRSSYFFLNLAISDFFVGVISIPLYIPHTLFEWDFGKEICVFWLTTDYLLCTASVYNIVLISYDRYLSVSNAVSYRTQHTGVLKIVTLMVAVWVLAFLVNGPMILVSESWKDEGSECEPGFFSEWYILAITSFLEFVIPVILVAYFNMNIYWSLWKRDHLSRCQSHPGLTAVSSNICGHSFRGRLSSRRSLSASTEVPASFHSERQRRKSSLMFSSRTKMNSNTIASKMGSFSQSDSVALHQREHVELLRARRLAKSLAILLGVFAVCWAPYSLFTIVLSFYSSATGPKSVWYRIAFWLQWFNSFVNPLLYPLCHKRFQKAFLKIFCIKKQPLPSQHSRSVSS
Histamine H1 receptor, sequence (P35367 whole entry): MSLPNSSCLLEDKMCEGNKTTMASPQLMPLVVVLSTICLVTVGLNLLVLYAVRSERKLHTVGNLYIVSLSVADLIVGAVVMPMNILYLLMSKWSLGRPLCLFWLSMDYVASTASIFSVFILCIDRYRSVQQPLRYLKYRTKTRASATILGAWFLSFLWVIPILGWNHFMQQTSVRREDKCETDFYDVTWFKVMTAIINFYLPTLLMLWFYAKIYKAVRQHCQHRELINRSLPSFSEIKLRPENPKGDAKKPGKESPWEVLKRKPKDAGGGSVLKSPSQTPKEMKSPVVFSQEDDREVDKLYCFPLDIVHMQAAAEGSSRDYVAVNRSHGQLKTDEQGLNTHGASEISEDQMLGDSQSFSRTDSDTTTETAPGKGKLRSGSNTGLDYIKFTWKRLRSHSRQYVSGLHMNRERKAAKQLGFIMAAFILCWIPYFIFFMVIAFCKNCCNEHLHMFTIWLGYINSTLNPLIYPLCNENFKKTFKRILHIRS
Sodium-dependent dopamine transporter, sequence (Q01959 whole entry): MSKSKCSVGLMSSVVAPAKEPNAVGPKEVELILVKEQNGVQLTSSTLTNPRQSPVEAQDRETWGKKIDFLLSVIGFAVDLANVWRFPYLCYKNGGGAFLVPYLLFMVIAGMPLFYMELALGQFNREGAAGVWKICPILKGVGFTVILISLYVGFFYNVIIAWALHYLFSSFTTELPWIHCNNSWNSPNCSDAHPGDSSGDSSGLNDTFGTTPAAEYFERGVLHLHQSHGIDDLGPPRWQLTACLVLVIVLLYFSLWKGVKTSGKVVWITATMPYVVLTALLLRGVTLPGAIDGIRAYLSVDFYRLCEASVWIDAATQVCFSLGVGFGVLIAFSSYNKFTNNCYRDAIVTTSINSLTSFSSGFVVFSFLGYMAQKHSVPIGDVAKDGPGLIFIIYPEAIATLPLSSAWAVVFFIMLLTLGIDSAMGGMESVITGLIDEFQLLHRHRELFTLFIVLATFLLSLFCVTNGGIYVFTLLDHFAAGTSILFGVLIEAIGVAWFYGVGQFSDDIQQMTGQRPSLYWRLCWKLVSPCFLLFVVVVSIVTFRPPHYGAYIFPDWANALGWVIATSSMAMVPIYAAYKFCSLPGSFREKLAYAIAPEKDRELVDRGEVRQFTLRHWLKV
Histamine H2 receptor, sequence (P25021 whole entry): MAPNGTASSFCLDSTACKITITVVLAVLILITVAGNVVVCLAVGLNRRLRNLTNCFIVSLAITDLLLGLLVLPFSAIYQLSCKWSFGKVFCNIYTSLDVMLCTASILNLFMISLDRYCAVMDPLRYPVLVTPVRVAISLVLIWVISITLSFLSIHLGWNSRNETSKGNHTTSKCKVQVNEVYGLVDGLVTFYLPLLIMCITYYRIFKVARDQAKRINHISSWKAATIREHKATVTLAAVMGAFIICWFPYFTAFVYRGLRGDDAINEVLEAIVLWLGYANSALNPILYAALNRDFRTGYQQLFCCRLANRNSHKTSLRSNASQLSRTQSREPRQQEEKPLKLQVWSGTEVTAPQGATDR

O=C1NN=C(c2ccc(OCCCN3CCCCC3)cc2)C2CC12 (racemic)
pKi [1]: 7.72
pKi [2]: 7.27

C[C@@H]1CCCN1CCCOc1ccc(C2=NNC(=O)[C@H]3C[C@@H]23)cc1
Time [3]: 85 min
AUC [4]: 221 min
half-life [5]: > 40 min
Kp at 2 h [6]: 3.1
Cmax [7]: 738 ng/mL
pKi [8]: < 5.00
pKi [9]: 5.18
solubility [10]: > 4000 µg/mL
Papp [11]: 15.7 ×10⁻⁶ cm/s
half-life [12]: > 40 min
fraction unbound [13]: 0.46
Vd [14]: 2.5 L/kg
AUC(0-t) [15]: 4660 ng·h/mL
fraction unbound [16]: 0.47
pIC50 [17]: < 4.52
Activity [18]: Non-toxic
half-life [19]: 84 min
clearance [20]: 20 mL/min/kg
pKi [1]: 8.35
Time [21]: 130 min
Activity [22]: Dose-dependent effect
ED50 [22]: 0.21 mg/kg
Activity [23]: Non-toxic
bioavailability [24]: 46%
half-life [25]: > 40 min
pEC50 [26]: 9.22
fraction unbound [27]: 0.39
pKi [28]: 5.74
solubility [29]: > 4000 µg/mL
Time [30]: 106 min
AUC [31]: 134 min
pKi [32]: < 5.00
pKi [2]: 7.85
AUC [33]: 192 min
half-life [34]: > 40 min
pKi [35]: < 5.00
AUC [36]: 231 min
